The record followed here is US8063048B2, “Acetylenyl-pyrazolo-pyrimidine derivatives” (Hoffmann-La Roche Inc., priority 2005, dated 2011).

As a reminder, the melting point is the temperature, or range, at which the solid turns liquid. `NS(=O)(=O)c1cc(C#Cc2cnn3c(C4CC4)cc(-c4ccc(Cl)c(Cl)c4)nc23)c(F)cc1F` [Example 85, 5-[7-Cyclopropyl-5-(3,4-dichloro-phenyl)-pyrazolo[1,5-a]pyrimidin-3-ylethynyl]-2,4-difluoro-benzenesulfonamide] gave a melting point of 280 to 281 °C. Consider `Nc1ncc(C#Cc2cnn3c(C(F)F)cc(-c4ccc(C(F)(F)F)cc4)nc23)cn1` [Example 213, 5-[7-Difluoromethyl-5-(4-trifluoromethyl-phenyl)-pyrazolo[1,5-a]pyrimidin-3-ylethynyl]-pyrimidin-2-ylamine], for which the melting point was in the range of 242 to 243 °C. For `Cc1cc(C#Cc2cnn3c(C(F)(F)F)cc(-c4ccc(C(F)(F)F)cc4)nc23)cnc1N` [Example 127, 3-Methyl-5-[7-trifluoromethyl-5-(4-trifluoromethyl-phenyl)-pyrazolo[1,5-a]pyrimidin-3-ylethynyl]-pyridin-2-ylamine], the melting point is 233 to 234 °C. Compound `Nc1ncc(C#Cc2cnc3c(C(F)(F)F)cc(-c4ccc(C(F)(F)F)cc4)nn23)cn1` [Example 243, 5-[8-Trifluoromethyl-6-(4-trifluoromethyl-phenyl)-imidazo[1,2-b]pyridazin-3-ylethynyl]-pyrimidin-2-ylamine] had a melting point of 220 to 221 °C.

`CN(C)S(=O)(=O)c1ccc(C#Cc2cnn3c(C(F)(F)F)cc(-c4ccc(C(F)(F)F)cc4)nc23)cc1` [Example 121, N,N-Dimethyl-4-[7-trifluoromethyl-5-(4-trifluoromethyl-phenyl)-pyrazolo[1,5-a]pyrimidin-3-ylethynyl]-benzenesulfonamide] gave a melting point of 226 to 227 °C. For `NS(=O)(=O)c1cc(C#Cc2cnn3c(C4CC4)cc(-c4ccc(C(F)(F)F)cc4)nc23)c(F)cc1F` [Example 77, 5-[7-Cyclopropyl-5-(4-trifluoromethyl-phenyl)-pyrazolo[1,5-a]pyrimidin-3-ylethynyl]-2,4-difluoro-benzenesulfonamide], the melting point fell in the range of 255 to 257 °C. With `NS(=O)(=O)c1cncc(C#Cc2cnn3c(C4CC4)cc(-c4ccc(Cl)cc4)nc23)c1` [Example 66, 5-[5-(4-Chloro-phenyl)-7-cyclopropyl-pyrazolo[1,5-a]pyrimidin-3-ylethynyl]-pyridine-3-sulfonic acid amide], the melting point fell in the range of 252 to 254 °C. Compound `CNS(=O)(=O)c1ccc(C#Cc2cnn3c(C(F)F)cc(-c4ccc(C(F)(F)F)cc4)nc23)cc1` [Example 138, 4-[7-difluoromethyl-5-(4-trifluoromethyl-phenyl)-pyrazolo[1,5-a]pyrimidin-3-ylethynyl]-N-methyl-benzenesulfonamide] showed a melting point of 202 to 203 °C.

With `Cc1cc(-c2cc(C(F)(F)F)n3ncc(C#Cc4cccc(S(N)(=O)=O)c4)c3n2)ccc1Cl` [Example 112, 3-[5-(4-Chloro-3-methyl-phenyl)-7-trifluoromethyl-pyrazolo[1,5-a]pyrimidin-3-ylethynyl]-benzenesulfonamide], the melting point stood at 234 °C. To `CC(CO)(CO)NS(=O)(=O)c1cncc(C#Cc2cnn3c(C4CC4)cc(-c4ccc(Cl)cc4)nc23)c1` [Example 68, 5-[5-(4-Chloro-phenyl)-7-cyclopropyl-pyrazolo[1,5-a]pyrimidin-3-ylethynyl]-pyridine-3-sulfonic acid (2-hydroxy-1-hydroxymethyl-1-methyl-ethyl)-amide] belongs 204 to 206 °C.

Consider `O=S(=O)(c1ccc(C#Cc2cnn3c(C(F)F)cc(-c4ccc(C(F)(F)F)cc4)nc23)s1)N(CCO)CCO` [Example 269, 5-[7-Difluoromethyl-5-(4-trifluoromethyl-phenyl)-pyrazolo[1,5-a]pyrimidin-3-ylethynyl]-thiophene-2-sulfonic acid bis-(2-hydroxy-ethyl)-amide], for which the melting point worked out at 122 °C. In turn, `NC(=O)c1ccc(C#Cc2cnn3c(C(F)(F)F)cc(-c4ccc(C(F)(F)F)cc4)nc23)cc1` [Example 197, 4-[7-Trifluoromethyl-5-(4-trifluoromethyl-phenyl)-pyrazolo[1,5-a]pyrimidin-3-ylethynyl]-benzamide] registered a melting point of 260 °C. Consider `Nc1ncc(C#Cc2cnn3c(C4CC4)cc(-c4ccc(Cl)cc4)nc23)cn1` [Example 313, 5-[5-(4-Chloro-phenyl)-7-cyclopropyl-pyrazolo[1,5-a]pyrimidin-3-ylethynyl]-pyrimidin-2-ylamine], for which the melting point was 243 to 246 °C. The compound `O=S(=O)(c1cccc(C#Cc2cnn3c(C(F)F)cc(-c4ccc(C(F)(F)F)cc4)nc23)c1)N1CCOCC1` [Example 144, 7-Difluoromethyl-3-[3-(morpholine-4-sulfonyl)-phenylethynyl]-5-(4-trifluoromethyl-phenyl)-pyrazolo[1,5-a]pyrimidine] yielded a melting point of 175 to 176 °C. To `Cc1cc(-c2cc(C(F)(F)F)n3ncc(C#Cc4cnc(N)nc4)c3n2)ccc1C(F)(F)F` [Example 290, 5-[5-(3-Methyl-4-trifluoromethyl-phenyl)-7-trifluoromethyl-pyrazolo[1,5-a]pyrimidin-3-ylethynyl]-pyrimidin-2-ylamine] belongs 240 °C. `Cc1nc(C#Cc2cnn3c(C(F)(F)F)cc(-c4ccc(C(F)(F)F)cc4)nc23)sc1S(N)(=O)=O` [Example 54, 4-Methyl-2-[7-trifluoromethyl-5-(4-trifluoromethyl-phenyl)-pyrazolo[1,5-a]pyrimidin-3-ylethynyl]-thiazole-5-sulfonic acid amide] yielded a melting point of 245 to 246 °C. Compound `NS(=O)(=O)c1ccc(C#Cc2cnn3c(C(F)(F)F)cc(-c4ccc(Cl)c(Cl)c4)nc23)cc1` [Example 94, 4-[5-(3,4-Dichloro-phenyl)-7-trifluoromethyl-pyrazolo[1,5-a]pyrimidin-3-ylethynyl]-benzenesulfonamide] gave a melting point of 273 to 274 °C. Take `Cc1cc(C#Cc2cnn3c(C(F)F)cc(-c4ccc(C(F)(F)F)cc4)nc23)cnc1N` [Example 142, 5-[7-Difluoromethyl-5-(4-trifluoromethyl-phenyl)-pyrazolo[1,5-a]pyrimidin-3-ylethynyl]-3-methyl-pyridin-2-ylamine]: the melting point fell in the range of 194 to 195 °C. `O=S(=O)(c1ccc(C#Cc2cnn3c(C(F)(F)F)cc(-c4ccc(C(F)(F)F)cc4)nc23)s1)N1CCNCC1` [Example 260, 3-[5-(piperazine-1-sulfonyl)-thiophen-2-ylethynyl]-7-trifluoromethyl-5-(4-trifluoromethyl-phenyl)-pyrazolo[1,5-a]pyrimidine] returned a melting point of 223 °C. In turn, `NS(=O)(=O)c1cccc(C#Cc2cnn3c(C4CC4)cc(-c4ccc(Cl)cc4)nc23)c1` [Example 72, 3-[5-(4-Chloro-phenyl)-7-cyclopropyl-pyrazolo[1,5-a]pyrimidin-3-ylethynyl]-benzenesulfonamide] had a melting point of 236 to 237 °C. In turn, `CCOc1cc(-c2cc(C(F)(F)F)n3ncc(C#Cc4cccc(S(=O)(=O)NC(C)(C)CO)c4)c3n2)ccc1C(F)(F)F` [Example 41, 3-[5-(3-Ethoxy-4-trifluoromethyl-phenyl)-7-trifluoromethyl-pyrazolo[1,5-a]pyrimidin-3-ylethynyl]-N-(2-hydroxy-1,1-dimethyl-ethyl)-benzenesulfonamide] came in with a melting point of 209 to 211 °C.
